This note sets out measurements from patent US6737383B1, “Herbicidal oxadiazolidines” (priority 1999, dated 2004).

Assay [1] concerns morningglory. As to the kind of experiment: Test B pre/postemergence morningglory. The class given is in vivo, Ipomoea hederacea. Put shortly: (§1)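 Response is a visual 0-to-10 score relative to untreated plants, where 0 means no effect and 10 means complete control, taken twelve to sixteen days after application. Treatments went onto soil at planting and onto foliage of 1- to 4-leaf plants, using a surfactant-containing non-phytotoxic solvent.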

The subject of assay [2] is pigweed. Kind of assay: Test B pre/postemergence pigweed. In kind it is in vivo, Amaranthus retroflexus. Put shortly:
as §1

The subject of assay [3] is giant foxtail. Kind of assay: Test B pre/postemergence giant foxtail. In kind it is in vivo, Setaria faberii. Put shortly:
as §1

[4] abbreviates: Postemergence, Rate 62 g/ha, scale 0 to 10, 0 is no effect, 10 is complete control.
Setting [5] is: Postemergence, Rate 250 g/ha, scale 0 to 10, 0 no effect, 10 complete control.
Setting [6] is: Preemergence, Rate 62 g/ha, scale 0 to 10, 0 is no effect, 10 is complete control.
Setting [7] is: Preemergence, Rate 125 g/ha, scale 0 to 10 (0 no effect, 10 complete control).
[8] abbreviates: Preemergence, Rate 250 g/ha, scale of 0 to 10 where 0 is no effect and 10 is complete control.
[9] abbreviates: Preemergence, Rate 500 g/ha, scale 0 (no effect) to 10 (complete control).
Where [10] appears, read: Rate 125 g/ha, Postemergence, scale 0 to 10, 0 no effect, 10 complete control.
The mark [11] stands for this setting: Rate 500 g/ha, Postemergence, 0 to 10 scale (0 no effect, 10 complete control).
Where [12] appears, read: Postemergence, Rate 125 g/ha, scale 0 to 10, 0 is no effect, 10 is complete control.
The mark [13] stands for this setting: Preemergence, Rate 62 g/ha, scale of 0 to 10 where 0 is no effect and 10 is complete control.
The mark [14] stands for this setting: Preemergence, Rate 500 g/ha, scale of 0 to 10 where 0 is no effect and 10 is complete control.
Setting [15] is: Rate 62 g/ha, Postemergence, scale of 0 to 10 where 0 is no effect and 10 is complete control.
Setting [16] is: Rate 500 g/ha, Postemergence, scale 0 to 10, 0 no effect, 10 complete control.
Where [17] appears, read: Postemergence, Rate 31 g/ha, visual rating, scale 0 to 10 (0 no effect, 10 complete control).
[18] abbreviates: Postemergence, Rate 250 g/ha, scale 0 to 10.
The mark [19] stands for this setting: Preemergence, Rate 125 g/ha, scale of 0 to 10 where 0 is no effect and 10 is complete control.
Where [20] appears, read: Preemergence, Rate 250 g/ha, scale 0 to 10, 0 is no effect, 10 is complete control.
Where [21] appears, read: Rate 62 g/ha, Postemergence, scale 0 to 10 (0 no effect, 10 complete control).
Setting [22] is: Rate 125 g/ha, Postemergence, scale 0 to 10, 0 is no effect, 10 is complete control.
[23] abbreviates: Preemergence, Rate 31 g/ha, visual rating, scale 0 to 10 (0 no effect, 10 complete control).
The mark [24] stands for this setting: Rate 31 g/ha, Postemergence, scale 0 to 10.
Setting [25] is: Postemergence, Rate 500 g/ha, scale of 0 to 10 where 0 is no effect and 10 is complete control.
Where [26] appears, read: Preemergence, Rate 500 g/ha, scale 0 to 10, 0 is no effect, 10 is complete control.
The mark [27] stands for this setting: Postemergence, Rate 125 g/ha, scale of 0 to 10 where 0 is no effect and 10 is complete control.
Setting [28] is: Preemergence, Rate 62 g/ha, scale 0 to 10 (0 no effect, 10 complete control).

For the molecule `CC(C)Oc1cc(-n2c(=O)on(C(=O)N(c3ccc(F)cc3)C(C)C)c2=O)c(Cl)cc1Cl` [Compound 43], the “Morningglory plant response rating” value in assay [1] (setting [4]) came out at 2; in assay [1] (setting [5]), 3; in assay [1] (setting [9]) it was 0; in assay [1] (setting [10]), 3; in assay [1] (setting [11]), 4. The “Plant response rating, Morningglory” value in assay [1] (setting [6]), in assay [1] (setting [7]) and in assay [1] (setting [8]) was 0 throughout. The “Redroot pigweed plant response rating” value in assay [2] (setting [4]) worked out at 1; in assay [2] (setting [9]), 4; in assay [2] (setting [10]), 2; in assay [2] (setting [11]), 6. Also, the “Plant response rating, Redroot pigweed” value in assay [2] (setting [6]), in assay [2] (setting [7]) and in assay [2] (setting [8]) was 0 throughout. Also, the “Giant foxtail plant response rating” value in assay [3] (setting [4]), in assay [3] (setting [5]), in assay [3] (setting [9]), in assay [3] (setting [10]) and in assay [3] (setting [11]) was 0 in each case. Also, the “Plant response rating, Giant foxtail” value in assay [3] (setting [6]), in assay [3] (setting [7]) and in assay [3] (setting [8]) was 0 each time.

Regarding `CC(C)N(C(=O)n1oc(=O)n(C2CCCCCC2)c1=O)c1ccc(Cl)cc1` [Compound 339], the “Plant response rating, Morningglory” value came out at 2 in assay [1] (setting [12]) and 10 in assay [1] (setting [16]). Also, the “Morningglory plant response rating” value worked out at 0 in assay [1] (setting [13]), 0 in assay [1] (setting [8]), 0 in assay [1] (setting [14]) and 2 in assay [1] (setting [15]). Also, in assay [1] (Preemergence, Rate 125 g/ha), the “Morningglory plant response rating (0 to 10 scale)” value is 0. Also, the “Plant response rating, Redroot pigweed” value in assay [2] (setting [12]) amounted to 2; in assay [2] (setting [16]) it was 6. The “Redroot pigweed plant response rating” value in assay [2] (setting [13]), in assay [2] (setting [8]), in assay [2] (setting [14]) and in assay [2] (setting [15]) was 0 throughout. Moreover, the “Redroot pigweed plant response rating (0 to 10 scale)” value in assay [2] (Preemergence, Rate 125 g/ha) was found to be 0. In addition, the “Plant response rating, Giant foxtail” value in assay [3] (setting [12]) and in assay [3] (setting [16]) was 0 in each case. Besides, the “Giant foxtail plant response rating” value in assay [3] (setting [13]) worked out at 1; in assay [3] (setting [8]), 9; in assay [3] (setting [14]), 10; in assay [3] (setting [15]) it was 0. Moreover, the “Giant foxtail plant response rating (0 to 10 scale)” value in assay [3] (Preemergence, Rate 125 g/ha) is 3.

Consider `CC(C)N(C(=O)n1oc(=O)n(CC2=NOCCC2)c1=O)c1ccc(Cl)cc1` [Compound 450], for which the “Morningglory plant response rating” value in assay [1] (setting [17]) worked out at 0; in assay [1] (setting [18]), 1; in assay [1] (setting [20]), 0; in assay [1] (setting [21]) it was 0; in assay [1] (setting [22]), 0. Also, the “Plant response rating, Morningglory” value in assay [1] (setting [13]) and in assay [1] (setting [19]) was 0 throughout. Besides, the “Redroot pigweed plant response rating” value in assay [2] (setting [17]) turned out to be 0; in assay [2] (setting [18]) it was 0; in assay [2] (setting [20]) it was 7; in assay [2] (setting [21]) it was 0; in assay [2] (setting [22]), 0. Further, the “Plant response rating, Redroot pigweed” value in assay [2] (setting [13]) was determined as 0; in assay [2] (setting [19]), 4. Further, the “Giant foxtail plant response rating” value in assay [3] (setting [17]) turned out to be 0; in assay [3] (setting [18]), 7; in assay [3] (setting [23]), 0; in assay [3] (setting [20]) it was 9; in assay [3] (setting [21]), 2; in assay [3] (setting [22]), 5. Further, the results for the “Plant response rating, Giant foxtail” value in assay [3] (setting [13]) and in assay [3] (setting [19]) were 2 and 8, respectively.

Regarding `CCN(C(=O)n1oc(=O)n(-c2ccc(C)cc2C)c1=O)C1CCCCC1` [Compound 26], the “Morningglory plant response rating” value in assay [1] (setting [4]) was 1; in assay [1] (setting [5]), 3; in assay [1] (setting [23]), 0; in assay [1] (setting [24]), 0; in assay [1] (setting [10]) it was 1. Moreover, the “Plant response rating, Morningglory” value in assay [1] (setting [6]), in assay [1] (setting [7]) and in assay [1] (setting [8]) was 0 each time. The “Redroot pigweed plant response rating” value in assay [2] (setting [4]), in assay [2] (setting [5]), in assay [2] (setting [23]), in assay [2] (setting [24]) and in assay [2] (setting [10]) was 0 each time. In addition, the “Plant response rating, Redroot pigweed” value in assay [2] (setting [6]), in assay [2] (setting [7]) and in assay [2] (setting [8]) was 0 throughout. The “Giant foxtail plant response rating” value in assay [3] (setting [4]), in assay [3] (setting [5]), in assay [3] (setting [23]), in assay [3] (setting [24]) and in assay [3] (setting [10]) was 0 in each case. In addition, the “Plant response rating, Giant foxtail” value in assay [3] (setting [6]) was determined as 0; in assay [3] (setting [7]), 0; in assay [3] (setting [8]), 4.

In the case of `COCC(OC)n1c(=O)on(C(=O)N(c2ccc(F)cc2)C(C)C)c1=O` (stereo not drawn) [Compound 446], the “Morningglory plant response rating” value in assay [1] (setting [18]) is 3; in assay [1] (setting [25]) it was 3; in assay [1] (setting [20]), 0; in assay [1] (setting [26]) it was 9; in assay [1] (setting [21]), 2; in assay [1] (setting [22]), 2. The “Plant response rating, Morningglory” value in assay [1] (setting [13]) and in assay [1] (setting [19]) was 0 each time. Further, the “Redroot pigweed plant response rating” value in assay [2] (setting [18]) is 0; in assay [2] (setting [25]) it was 0; in assay [2] (setting [20]), 10; in assay [2] (setting [26]), 10; in assay [2] (setting [21]) it was 0; in assay [2] (setting [22]), 0. Besides, the “Plant response rating, Redroot pigweed” value in assay [2] (setting [13]) was 6; in assay [2] (setting [19]) it was 10. For the same molecule, the “Giant foxtail plant response rating” value in assay [3] (setting [18]) was 9; in assay [3] (setting [25]), 9; in assay [3] (setting [20]), 10; in assay [3] (setting [26]), 10; in assay [3] (setting [21]), 6; in assay [3] (setting [22]), 9. Further, the results for the “Plant response rating, Giant foxtail” value in assay [3] (setting [13]) and in assay [3] (setting [19]) were 9 and 10, respectively.

Turning to `CCc1noc(CC)c1-n1c(=O)on(C(=O)N(c2ccc(F)cc2)C(C)C)c1=O` [Compound 102], the “Morningglory plant response rating” value in assay [1] (setting [27]) turned out to be 0; in assay [1] (setting [5]) it was 1; in assay [1] (setting [28]), 0; in assay [1] (setting [15]), 0; in assay [1] (setting [16]), 3. Also, the “Plant response rating, Morningglory” value in assay [1] (setting [7]) and in assay [1] (setting [8]) was 0 in each case. In addition, the “Redroot pigweed plant response rating” value in assay [2] (setting [27]), in assay [2] (setting [28]), in assay [2] (setting [15]) and in assay [2] (setting [16]) was 0 throughout. In addition, the “Plant response rating, Redroot pigweed” value in assay [2] (setting [7]) is recorded as 0; in assay [2] (setting [8]), 0; in assay [2] (Rate 250 g/ha, Postemergence, scale 0 to 10, 0 is no effect, 10 is complete control), 0. In addition, the “Giant foxtail plant response rating” value is on record as 0 in assay [3] (setting [27]); 0 in assay [3] (setting [5]); 2 in assay [3] (setting [28]); 0 in assay [3] (setting [15]); 2 in assay [3] (setting [16]). Also, the “Plant response rating, Giant foxtail” value in assay [3] (setting [7]) came to 4; in assay [3] (setting [8]), 9.
